{"source": "patent US9974860B2", "about": "“Aqueous solution formulation and method for manufacturing same” (Akiko ITAI, priority 2013, dated 2018)", "key": {"[1]": {"details": "cited from earlier work"}, "[2]": {"experiment": "Pharmacokinetic study, intravenous administration of aqueous solution of Working Example 1", "type": "in vivo, Sprague-Daweley IGS rats", "details": "i.v.; for C0 / AUC(0-t): Sprague-Dawley IGS, rat, blood, iv, average of three; for AUC(0-t): read-out: AUC0-24", "text": "The aqueous solution obtained in Working Example 1 was filtered and sterilized with Millex (registered trademark)-GV (0.22 μm; available from Millipore Japan Corporation/Merck Millipore Corporation) and intravenously administered to female and male Sprague-Daweley IGS rats (6 weeks old) to investigate the pharmacokinetics of Compound (I).\nAs groups of animals, female and male Sprague-Daweley IGS rats (available from Charles River Laboratories Japan, Inc.) were used. The rats were 6 weeks old. The male rats had body weights of 166 to 189 g, and the female rats had body weights of 123 to 145 g.\nThe rats were quarantined and acclimated in a SPF (specific pathogen free) laboratory for animal experimentations for seven days, and their states of health were simultaneously observed. Each of the rats was kept in a sterilized stainless cage. In the SPF laboratory for animal experimentations, the temperature was maintained at 20.6 to 22.5° C., and the relative humidity was maintained at 44 to 60%. In the SPF laboratory for animal experimentations, ventilation was provided fifteen times per hour. Regarding illumination in the SPF laboratory for animal experimentations, a bright state and a dark state were switched every 12 hours.\nAs foods for rats, a standard dry food in stick-shape (whose components were already analyzed) was used. As drinking water, tap water which was confirmed to be within a range of the reference value was used, and the rats were allowed to freely drink it.\nThe above-mentioned quarantined rats were randomly divided into the following three groups (four female rats and four male rats per group) by weight.\n(1) Group 1: the aqueous solution obtained in Working Example 1 was administered in a dose of 1 mL/kg.\n(2) Group 2: the aqueous solution obtained in Working Example 1 was administered in a dose of 2 mL/kg.\n(3) Group 3: the aqueous solution obtained in Working Example 1 was administered in a dose of 3 mL/kg.\nAfter the quarantined rats fasted overnight (for about 16 hours), the aqueous solution obtained in Working Example 1 was intravenously administered. Blood was collected 0.083 hours, 0.25 hours, 0.5 hours, 1 hour, 4 hours, and 24 hours after the administration, and the concentration of Compound (I) in the blood was measured. The maximum blood concentration, C0 (ng/mL), just after the composition for injection was intravenously administered, and the area under the blood concentration-time curve of Compound (I) over 0 to 24 hours after the administration, AUC0-24 (ng·h/mL), were calculated from the measured concentrations of Compound (I) in the blood at the collection times."}, "[3]": {"details": "female rats, aqueous solution of Working Example 1, dose of Compound (I) 1 mg/kg (Group 1)"}, "[4]": {"details": "female rats, aqueous solution of Working Example 1, dose of Compound (I) 2 mg/kg (Group 2)"}, "[5]": {"details": "female rats, aqueous solution of Working Example 1, dose of Compound (I) 3 mg/kg (Group 3)"}, "[6]": {"details": "male rats, aqueous solution of Working Example 1, dose of Compound (I) 1 mg/kg (Group 1)"}, "[7]": {"details": "male rats, aqueous solution of Working Example 1, dose of Compound (I) 2 mg/kg (Group 2)"}, "[8]": {"details": "male rats, aqueous solution of Working Example 1, dose of Compound (I) 3 mg/kg (Group 3)"}}, "note": "Like-named read-outs stand apart in the source and are kept apart here.", "data": [{"smiles": "O=C(Nc1cc(C(F)(F)F)cc(C(F)(F)F)c1)c1cc(Cl)ccc1O", "note": "[Compound (I), N-[3,5-bis(trifluoromethyl)phenyl]-5-chloro-2-hydroxybenzamide]", "values": [{"measurement": "Water solubility", "setting": "[1]", "result": "poor water solubility"}, {"measurement": "C0", "setting": "[2]; [3]", "result": 2150, "unit": "ng/mL"}, {"measurement": "AUC(0-t)", "setting": "[2]; [3]", "result": 388, "unit": "ng·h/mL"}, {"measurement": "C0", "setting": "[2]; [4]", "result": 2820, "unit": "ng/mL"}, {"measurement": "AUC(0-t)", "setting": "[2]; [4]", "result": 540, "unit": "ng·h/mL"}, {"measurement": "C0", "setting": "[2]; [5]", "result": 5250, "unit": "ng/mL"}, {"measurement": "AUC(0-t)", "setting": "[2]; [5]", "result": 981, "unit": "ng·h/mL"}, {"measurement": "C0", "setting": "[2]; [6]", "result": 1380, "unit": "ng/mL"}, {"measurement": "AUC(0-t)", "setting": "[2]; [6]", "result": 304, "unit": "ng·h/mL"}, {"measurement": "C0", "setting": "[2]; [7]", "result": 3210, "unit": "ng/mL"}, {"measurement": "AUC(0-t)", "setting": "[2]; [7]", "result": 620, "unit": "ng·h/mL"}, {"measurement": "C0", "setting": "[2]; [8]", "result": 4850, "unit": "ng/mL"}, {"measurement": "AUC(0-t)", "setting": "[2]; [8]", "result": 1260, "unit": "ng·h/mL"}, {"measurement": "Exposure of Compound (I) in vivo", "setting": "[2]; rats, aqueous solution of Working Example 1, 1 to 3 mL/kg", "result": "exposed in a dose-dependent manner and in a sufficient amount"}]}]}
